# Test results reported in patent US20020173538A1, “Method for sensitizing cancer cells to cancer therapies with a mevalonate-reducing compound” (priority 2000, published 2002).
# Read-outs that look alike come from different tables or passages of the source.
# Tests used:
# [1] = MTT cell viability assay, mouse hepatocytes (serum-free RPMI-1640); assay type: cell-based; conditions: BALB/c, isolated mouse hepatocytes
# [2] = test system: Hep 3B cells; assay: Sub-G1 population and DNA fragmentation (apoptosis), Hep 3B; assay type: cell-based, human; conditions: compared with Hep G2 cells treated in the same condition (FIG. 12)
# [3] = test system: cholesterol biosynthesis in Hep G2 cells; assay: Cholesterol biosynthesis, incorporation of [2, ^3H]acetate into [^3H]cholesterol, Hep G2; assay type: cell-based, human; conditions: for inhibition at 10 µM / inhibition at 1 µM / inhibition at 5 µM / inhibition at 50 µM: Homo sapiens, read-out: percentage of inhibition of cholesterol biosynthesis
# [4] = test system: cholesterol biosynthesis in Hep 3B cells; assay: Cholesterol biosynthesis, incorporation of [2, ^3H]acetate into [^3H]cholesterol, Hep 3B; assay type: cell-based, human; conditions: for inhibition at 10 µM / inhibition at 1 µM / inhibition at 5 µM / inhibition at 50 µM: Homo sapiens, Hep3B, read-out: percentage of inhibition of cholesterol biosynthesis
compound,measurement,setting,value
"CC[C@H](C)C(=O)O[C@H]1C[C@@H](C)C=C2C=C[C@H](C)[C@H](CC[C@@H]3C[C@@H](O)CC(=O)O3)[C@H]21 [Lovastatin, lovastatin]","viability at 72 h, 1 μM",[1],91.9 ± 2.7%
same,"viability at 72 h, 2 μM",[1],85 ± 4.5%
same,"viability at 72 h, 5 μM",[1],84.7 ± 13.3%
same,"viability at 72 h, 10 μM",[1],80.4 ± 9.9%
same,"viability at 72 h, 20 μM",[1],74.9 ± 5.1%
same,"viability at 72 h, 50 μM",[1],39.1 ± 10.6%
same,Sub-G1 population and DNA fragmentation (markers of cell apoptosis),[2],observed in a higher percentage and lower dose of lovastatin treatment than those in Hep G2 cells
same,inhibition at 10 µM,"[3]; HepG2, 2 h",91.8%
same,inhibition at 10 µM,"[3]; HepG2, 6 h",94%
same,inhibition at 10 µM,"[3]; HepG2, 12 h",93.3%
same,inhibition at 1 µM,"[3]; HepG2, 24 h",50.7%
same,inhibition at 5 µM,"[3]; HepG2, 24 h",73.2%
same,inhibition at 10 µM,"[3]; HepG2, 24 h",87.2%
same,inhibition at 50 µM,"[3]; HepG2, 24 h",95.8%
same,inhibition at 1 µM,"[3]; HepG2, 48 h",-15.3%
same,inhibition at 5 µM,"[3]; HepG2, 48 h",48.5%
same,inhibition at 10 µM,"[3]; HepG2, 48 h",69.4%
same,inhibition at 50 µM,"[3]; HepG2, 48 h",85.1%
same,[^3H]cholesterol,"[3]; lovastatin 1 μM, 24 hr",30.14 10^2 dpm/10^5 cells/hr
same,[^3H]cholesterol,"[3]; lovastatin 1 μM, 48 hr",70.43 10^2 dpm/10^5 cells/hr
same,[^3H]cholesterol,"[3]; lovastatin 5 μM, 24 hr",16.39 10^2 dpm/10^5 cells/hr
same,[^3H]cholesterol,"[3]; lovastatin 5 μM, 48 hr",31.46 10^2 dpm/10^5 cells/hr
same,[^3H]cholesterol,"[3]; lovastatin 10 μM, 2 hr",5.00 10^2 dpm/10^5 cells/hr
same,[^3H]cholesterol,"[3]; lovastatin 10 μM, 6 hr",3.67 10^2 dpm/10^5 cells/hr
same,[^3H]cholesterol,"[3]; lovastatin 10 μM, 12 hr",4.07 10^2 dpm/10^5 cells/hr
same,[^3H]cholesterol,"[3]; lovastatin 10 μM, 24 hr",7.83 10^2 dpm/10^5 cells/hr
same,[^3H]cholesterol,"[3]; lovastatin 10 μM, 48 hr",18.71 10^2 dpm/10^5 cells/hr
same,[^3H]cholesterol,"[3]; lovastatin 50 μM, 24 hr",2.54 10^2 dpm/10^5 cells/hr
same,[^3H]cholesterol,"[3]; lovastatin 50 μM, 48 hr",9.13 10^2 dpm/10^5 cells/hr
same,inhibition at 10 µM,[4]; 2 h,94.1%
same,inhibition at 10 µM,[4]; 6 h,92.4%
same,inhibition at 10 µM,[4]; 12 h,89.5%
same,inhibition at 1 µM,[4]; 24 h,50%
same,inhibition at 5 µM,[4]; 24 h,85.4%
same,inhibition at 10 µM,[4]; 24 h,91.4%
same,inhibition at 50 µM,[4]; 24 h,95.1%
same,inhibition at 1 µM,[4]; 48 h,68.2%
same,inhibition at 5 µM,[4]; 48 h,86.2%
same,inhibition at 10 µM,[4]; 48 h,94%
same,inhibition at 50 µM,[4]; 48 h,95.5%
same,suppression of cholesterol synthesis,[4]; after prolonged treatment with lovastatin,> 90%
same,[^3H]cholesterol,"[4]; lovastatin 1 μM, 24 hr",29.84 10^2 dpm/10^5 cells/hr
same,[^3H]cholesterol,"[4]; lovastatin 1 μM, 48 hr",18.95 10^2 dpm/10^5 cells/hr
same,[^3H]cholesterol,"[4]; lovastatin 5 μM, 24 hr",8.69 10^2 dpm/10^5 cells/hr
same,[^3H]cholesterol,"[4]; lovastatin 5 μM, 48 hr",8.25 10^2 dpm/10^5 cells/hr
same,[^3H]cholesterol,"[4]; lovastatin 10 μM, 2 hr",3.54 10^2 dpm/10^5 cells/hr
same,[^3H]cholesterol,"[4]; lovastatin 10 μM, 6 hr",4.52 10^2 dpm/10^5 cells/hr
same,[^3H]cholesterol,"[4]; lovastatin 10 μM, 12 hr",6.25 10^2 dpm/10^5 cells/hr
same,[^3H]cholesterol,"[4]; lovastatin 10 μM, 24 hr",5.13 10^2 dpm/10^5 cells/hr
same,[^3H]cholesterol,"[4]; lovastatin 10 μM, 48 hr",3.59 10^2 dpm/10^5 cells/hr
same,[^3H]cholesterol,"[4]; lovastatin 50 μM, 24 hr",2.92 10^2 dpm/10^5 cells/hr
same,[^3H]cholesterol,"[4]; lovastatin 50 μM, 48 hr",2.71 10^2 dpm/10^5 cells/hr
